Measurements: PubChem BioAssay (NCI)
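Assay format: 96-well plates, 48-hour exposure. The concentration for full growth arrest is given as TGI.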

Legend:
Assay in all cases: DTP human tumour cell line panel, 48 h
NCI-H226 lung = system: NCI-H226 lung
SK-MEL-5 melanoma = system: SK-MEL-5 melanoma
HT29 colon = system: HT29 colon
MOLT-4 leukemia = system: MOLT-4 leukemia
HOP-62 NSCLC = system: HOP-62 NSCLC
SK-OV-3 ovarian = system: SK-OV-3 ovarian
NCI-H23 lung = system: NCI-H23 lung
MDA-N = system: MDA-N
DU-145 prostate = system: DU-145 prostate
HS 578T breast = system: HS 578T breast

## CCOC(OCC)C(CC)[Se]c1ccccc1 (configuration not stated)
NCI-H226 lung
  TGI: > 100 µM
SK-MEL-5 melanoma
  TGI: > 100 µM
HT29 colon
  TGI: > 100 µM
MOLT-4 leukemia
  TGI: > 100 µM
HOP-62 NSCLC
  TGI: > 100 µM
SK-OV-3 ovarian
  TGI: > 100 µM
NCI-H23 lung
  TGI: 73.9 µM

## O=c1[nH]c(=O)n(COCc2ccccc2)c2ccccc12
NCI-H226 lung
  TGI: > 100 µM
SK-MEL-5 melanoma
  TGI: > 100 µM
MDA-N
  TGI: > 100 µM
DU-145 prostate
  TGI: > 100 µM
HT29 colon
  TGI: > 100 µM
MOLT-4 leukemia
  TGI: > 100 µM
SK-OV-3 ovarian
  TGI: > 100 µM

## COc1ccc(C2=C(Cl)c3cc(OC)c(OC)cc3C2)cc1OC
NCI-H226 lung
  TGI: > 100 µM
SK-MEL-5 melanoma
  TGI: > 100 µM
HT29 colon
  TGI: > 100 µM
MOLT-4 leukemia
  TGI: > 100 µM
HOP-62 NSCLC
  TGI: > 100 µM
SK-OV-3 ovarian
  TGI: > 100 µM
NCI-H23 lung
  TGI: > 100 µM

## COc1cc2[nH]c(=O)c3cc(C)cc4c(Cl)nc(c1OC)c2c43
NCI-H226 lung
  TGI: > 100 µM
SK-MEL-5 melanoma
  TGI: > 100 µM
MDA-N
  TGI: > 100 µM
DU-145 prostate
  TGI: > 100 µM
HT29 colon
  TGI: > 100 µM
MOLT-4 leukemia
  TGI: > 100 µM
HOP-62 NSCLC
  TGI: 75.7 µM
SK-OV-3 ovarian
  TGI: > 100 µM
NCI-H23 lung
  TGI: > 100 µM

## Cc1ccc(C#CS(=O)(=O)C(F)(F)F)cc1
NCI-H226 lung
  TGI: > 100 µM
SK-MEL-5 melanoma
  TGI: > 100 µM
HT29 colon
  TGI: > 100 µM
MOLT-4 leukemia
  TGI: > 100 µM
HOP-62 NSCLC
  TGI: > 100 µM
SK-OV-3 ovarian
  TGI: > 100 µM
NCI-H23 lung
  TGI: > 100 µM

## O=C1c2cccnc2-c2nccc3c2c1nc1ccc(Br)cc13
NCI-H226 lung
  TGI: 0.0639 µM
SK-MEL-5 melanoma
  TGI: 0.0887 µM
MDA-N
  TGI: 0.249 µM
DU-145 prostate
  TGI: 0.0577 µM
HT29 colon
  TGI: 0.723 µM
MOLT-4 leukemia
  TGI: 0.569 µM
HOP-62 NSCLC
  TGI: 0.194 µM
SK-OV-3 ovarian
  TGI: 0.389 µM
NCI-H23 lung
  TGI: 0.12 µM

## Cc1ccc(NC(=O)/C(=N/NC(=O)C[N+](C)(C)C)c2nc3ccccc3[nH]c2=O)cc1
NCI-H226 lung
  TGI: > 100 µM
SK-MEL-5 melanoma
  TGI: > 100 µM
HT29 colon
  TGI: > 100 µM
MOLT-4 leukemia
  TGI: > 100 µM
HOP-62 NSCLC
  TGI: > 100 µM
SK-OV-3 ovarian
  TGI: > 100 µM
NCI-H23 lung
  TGI: > 100 µM

## Cn1cnc(SC2=C3C(=O)C=C4S[C@H]5C[C@]42c2c(c(O)c4c6c2=[N+]3CCC=6C=N4)N5)c1CC(N)C(=O)O (some centres not stated)
NCI-H226 lung
  TGI: 36.5 µM
SK-MEL-5 melanoma
  TGI: 26.4 µM
HT29 colon
  TGI: 17.1 µM
MOLT-4 leukemia
  TGI: 33.7 µM
SK-OV-3 ovarian
  TGI: 52.8 µM
NCI-H23 lung
  TGI: 23.8 µM

## O=C(NNS(=O)(=O)c1ccccc1)c1csc(NC(=S)NC2CCCCC2)n1
NCI-H226 lung
  TGI: > 100 µM
SK-MEL-5 melanoma
  TGI: 27.6 µM
MDA-N
  TGI: 40.2 µM
DU-145 prostate
  TGI: 81.5 µM
HT29 colon
  TGI: > 100 µM
MOLT-4 leukemia
  TGI: > 100 µM
HOP-62 NSCLC
  TGI: > 100 µM
SK-OV-3 ovarian
  TGI: > 100 µM
NCI-H23 lung
  TGI: > 100 µM

## CC(=O)O[C@H]1C[C@](C)(O)[C@@]23CC([C@@H](OC(=O)C(C)(C)O)[C@@H](OC(C)=O)C2(COC(=O)c2ccccc2)[C@H]1OC(C)=O)C(C)(C)O3 (some centres not stated)
SK-MEL-5 melanoma
  TGI: > 100 µM
HS 578T breast
  TGI: > 100 µM
MDA-N
  TGI: > 100 µM
DU-145 prostate
  TGI: > 100 µM
HT29 colon
  TGI: > 100 µM
MOLT-4 leukemia
  TGI: > 100 µM
HOP-62 NSCLC
  TGI: > 100 µM
SK-OV-3 ovarian
  TGI: > 100 µM
NCI-H23 lung
  TGI: > 100 µM

## COc1ccc(C2=NNC(c3cc4cc(Br)ccc4nc3Cl)C2)cc1 (configuration not stated)
NCI-H226 lung
  TGI: 11.8 µM
HS 578T breast
  TGI: 24.2 µM
MDA-N
  TGI: 17.8 µM
DU-145 prostate
  TGI: > 25 µM
HT29 colon
  TGI: > 25 µM
MOLT-4 leukemia
  TGI: > 25 µM
NCI-H23 lung
  TGI: > 25 µM

## COc1ccc(-c2nc(-c3cnccn3)n(Cc3ccccc3)n2)cc1
SK-MEL-5 melanoma
  TGI: > 100 µM
MDA-N
  TGI: > 100 µM
DU-145 prostate
  TGI: > 100 µM
HT29 colon
  TGI: > 100 µM
MOLT-4 leukemia
  TGI: > 100 µM
HOP-62 NSCLC
  TGI: > 100 µM
SK-OV-3 ovarian
  TGI: > 100 µM
NCI-H23 lung
  TGI: > 100 µM

## OCC1OC(c2ccccc2)CC1O (configuration not stated)
NCI-H226 lung
  TGI: > 100 µM
SK-MEL-5 melanoma
  TGI: > 100 µM
DU-145 prostate
  TGI: > 100 µM
HT29 colon
  TGI: > 100 µM
MOLT-4 leukemia
  TGI: > 100 µM
SK-OV-3 ovarian
  TGI: > 100 µM

## N#CCc1nc2cc(C(F)(F)F)ccc2s1
NCI-H226 lung
  TGI: > 100 µM
SK-MEL-5 melanoma
  TGI: > 100 µM
MDA-N
  TGI: > 100 µM
DU-145 prostate
  TGI: > 100 µM
HT29 colon
  TGI: > 100 µM
MOLT-4 leukemia
  TGI: > 100 µM
HOP-62 NSCLC
  TGI: > 100 µM
SK-OV-3 ovarian
  TGI: > 100 µM
NCI-H23 lung
  TGI: 94.8 µM

## O=Cc1c(Br)[nH]c2ccccc12
NCI-H226 lung
  TGI: > 100 µM
SK-MEL-5 melanoma
  TGI: > 100 µM
HT29 colon
  TGI: > 100 µM
MOLT-4 leukemia
  TGI: > 72.6 µM
HOP-62 NSCLC
  TGI: > 100 µM
SK-OV-3 ovarian
  TGI: > 100 µM
NCI-H23 lung
  TGI: > 100 µM

## CC(=O)OCC1OC(n2c(N)c(C#N)c(-c3cccc(Cl)c3)c(C#N)c2=S)C(OC(C)=O)C(OC(C)=O)C1OC(C)=O (configuration not stated)
SK-MEL-5 melanoma
  TGI: 30.3 µM
HS 578T breast
  TGI: 91.5 µM
MDA-N
  TGI: 54.7 µM
DU-145 prostate
  TGI: 82 µM
HT29 colon
  TGI: 84.5 µM
MOLT-4 leukemia
  TGI: 51.5 µM
HOP-62 NSCLC
  TGI: > 100 µM
SK-OV-3 ovarian
  TGI: 57.1 µM
NCI-H23 lung
  TGI: 92.7 µM

## N#Cc1ccc2[nH]c3c(c2c1)CC(=O)Nc1ccccc1-3
NCI-H226 lung
  TGI: > 100 µM
SK-MEL-5 melanoma
  TGI: > 100 µM
HS 578T breast
  TGI: > 100 µM
HT29 colon
  TGI: > 100 µM
MOLT-4 leukemia
  TGI: > 100 µM
HOP-62 NSCLC
  TGI: > 100 µM
NCI-H23 lung
  TGI: > 100 µM

## COc1ccc(CCCN2c3ccccc3Sc3ccccc32)cc1
NCI-H226 lung
  TGI: > 100 µM
SK-MEL-5 melanoma
  TGI: > 100 µM
HT29 colon
  TGI: > 100 µM
MOLT-4 leukemia
  TGI: > 100 µM
HOP-62 NSCLC
  TGI: > 100 µM
SK-OV-3 ovarian
  TGI: > 100 µM
NCI-H23 lung
  TGI: > 100 µM
